The values below come from PMC8620685, “Effect of Selected Silyl Groups on the Anticancer Activity of 3,4-Dibromo-5-Hydroxy-Furan-2(5H)-One Derivatives” (Pharmaceuticals, 2021).

Entries after “also recorded” stand apart in the source; their conditions may differ. Where two headings read alike, the source gives them in different places.

In general, IC50 refers to the concentration that gives 50% inhibition.

Assay [1] has as its system HCT-116 cells. Nature of the assay: Cell cycle analysis (PI staining, flow cytometry). It is filed as cell-based, human. The note with it: 24 h; for effect on progression of the cell cycle / increase of the sub-G1 population / sub-G1 cells: HCT-116; for sub-G1 cells: untreated cells 0.3%. The method, then: To better understand the origin of the higher susceptibility of colon cancer cells to MBA and its novel derivatives, compounds 3b and 3c were selected to test their ability to perturb the cell cycle in the HCT-116 cell line. […] However, a significant increase in the percentage of sub-G1 cells after treatment with compounds 3b and 3c was observed. Compound 3b increased the sub-G1 population by 10% and 31%, at a concentration of 10 μM and 20 μM, respectively, while compound 3c exerts such effect only by 10% at the highest tested concentration (Figure 2).
The HCT 116 cells were seeded in 6-well plates (Nunc, ThermoFisher, Waltham, MA, USA) at a density of 5 × 10^4 cells/well. After 24 h the medium was replaced with tested compounds. The cells were incubated for 24 h at 37 °C. Afterward, floating cells were collected and adherent cells were harvested by trypsinization and centrifuged at 600× g. The cells were washed with PBS (phosphate buffered saline) (Sigma-Aldrich, Taufkirchen, Germany) and then fixed in 70% ice-cold ethanol and stored at −20 °C overnight. The next day the cells were centrifuged at 600× g, washed with PBS, treated with 100 μg/mL RNase A solution (EURx, Gdańsk, Poland), 100 μg/ml solution of propidium iodide (PI) (Acros Organics, Geel, Belgium) and incubated for 30 min at room temperature in the dark. After staining, the cells were analyzed using a Becton Dickinson FACS Aria III sorter (BD Company, San Diego, CA, USA). Experiments were repeated at least twice. Data were analyzed using ModFit LTTM Software (Verity Software House, Topsham, ME, USA).
In general terms: A flow cytometer gives signals particle by particle.

For assay [2], the system named is panel of human cancer cell lines (HCT116, HCT-116 −/−p53, HT-29, MCF-7, SJSA-1, U2OS, HepG2 and Hep3B). Nature of the assay: MTT assay, panel of human cancer cell lines. The note with it: 72 h incubation, read-out: IC50 range across all tested cancer cells. It is filed as cell-based. The method, then: (§1) The in vitro antitumor activities of the MBA and its derivatives (Table 2) were assayed against a panel of human cancer cell lines (HCT116, HCT-116 ^−/−p53, HT-29, MCF-7, SJSA-1, U2OS, HepG2 and Hep3B) using the MTT assay. As a reference drug we used 5-fluorouracil (5-FU). […] On the basis of in vitro antiproliferative activities, compounds 3b and 3c were selected for further mechanistic studies in the HCT-116 cell line.
Human cells lines: colon cancer (HCT-116 wt, HT-29), non-small lung carcinoma (A549), and bronchial epithelial cells (BEAS-2B) were obtained from American Type Culture Collection (ATCC, Manassas, VA, USA). Isogenic cell line HCT 116 p53^−/− (deleted both p53 alleles) were a gift from Dr. Bert Vogelstein. Other cell lines, namely MCF-7, SJSA-1, U2OS, HepG2, and Hep3B were received from the collection stored at Centre of Biotechnology of Silesian University of Technology. […]
5 × 10^3 cells per well for the MCF-7 cell line and 2.5 × 10^3 cells per well for the other cell lines were seeded in 96-well plates to adhere for 24 h. […] The absorbance was measured at 570 nm wavelength using a multiwall plate reader (BioTek, Winooski, VT, USA). […]

The test system of assay [3] is HCT 116 wt. Put plainly: MTT assay, HCT 116 wt. It is filed as cell-based, human. The note with it: Homo sapiens, HCT-116, 72 h, read-out: IC50 (cytotoxicity), HCT 116 wt, MTT, 72 h incubation. On the procedure: as §1
(§2) Human cells lines: colon cancer (HCT-116 wt, HT-29), non-small lung carcinoma (A549), and bronchial epithelial cells (BEAS-2B) were obtained from American Type Culture Collection (ATCC, Manassas, VA, USA). Isogenic cell line HCT 116 p53^−/− (deleted both p53 alleles) were a gift from Dr. Bert Vogelstein. Other cell lines, namely MCF-7, SJSA-1, U2OS, HepG2, and Hep3B were received from the collection stored at Centre of Biotechnology of Silesian University of Technology. All cells were grown in DMEM with a high glucose medium (Sigma-Aldrich, Taufkirchen, Germany) supplemented with 10% (v/v) inactivated fetal bovine serum (FBS) (EURx, Gdańsk, Poland) and 1% antibiotics (10,000 μg/mL of streptomycin and 10,000 units/ml of penicillin) (Sigma-Aldrich, Taufkirchen, Germany) at 37 °C in humidified 5% CO2. The maximum concentration of DMSO in the culture media was 0.4%.
(§3) 5 × 10^3 cells per well for the MCF-7 cell line and 2.5 × 10^3 cells per well for the other cell lines were seeded in 96-well plates to adhere for 24 h. Afterward, the cells were treated with tested compounds. After 72 hours of incubation, 50 μL 0.5 mg/ml solution of MTT (3-(4,5-dimethylthiazol-2-yl)-2,5-diphenyl-2H-tetrazolium bromide) were added to each well and the plates were incubated for 3 h at 37 °C. Next, the MTT solution was removed from the plates and formed formazan crystals were dissolved in 2-propanol (Avantor Performance Materials, Gliwice, Poland) containing 0.04 M hydrochloric acid (Avantor Performance Materials, Gliwice, Poland). The absorbance was measured at 570 nm wavelength using a multiwall plate reader (BioTek, Winooski, VT, USA). The experiment was performed at a minimum of 3 independent replicates. Cell viability was set as a percentage versus vehicle control. IC50 was defined as a concentration of a drug that decreased cell viability by 50% relative to the untreated control.

Assay [4] concerns HepG2. Put plainly: MTT assay, HepG2. It is filed as cell-based. Particulars: Homo sapiens, read-out: IC50 (cytotoxicity), HepG2. The method, then:
as §1, §2
as §3, with “The experiment was performed at a minimum of 3 independent replicates. Cell viability was set as a percentage versus vehicle control. IC50 was defined as a concentration of a drug that decreased cell viability by 50% relative to the untreated control.” left out

Assay [5] has as its system HCT-116 cells. Put plainly: Clonogenic (colony-formation) assay. It is filed as cell-based, human. The note with it: HCT-116, 10 μM for 24 h, then 10 days in drug-free medium. The method, then:
We next sought to investigate the effects of the MBA and compound 3b clonogenic potential of the HCT-116 cell line. The cells were treated with compounds 1 and 3b at 10 μM for 24 h. After harvesting, the cells were re-seeded and cultivated for another 10 days in a drug-free medium.
The HCT116 wt cells (5 × 10^4 cells/well) were plated in 6-well plates (Nunc, ThermoFisher, Waltham, USA) and treated with the tested compounds for 24 and 72 h. Cells were harvested by trypsinization and then re-seeded on the new 6-well plate (Nunc, ThermoFisher, Waltham, MA, USA) with a density of 2 × 10^3 cells/well. After 10 days the cells were washed with cold PBS (Sigma-Aldrich, Taufkirchen, Germany), fixed in ice-cold ethanol (−20 °C) for 3 minutes, air-dried, washed again with cold PBS and stained with 0.01% crystal violet (Sigma-Aldrich, Taufkirchen, Germany) in dH2O (deionized water) for 15 min. Next the plates were washed in dH2O and allowed to dry. Colonies were counted with a microscope (Zeiss, Oberkochen, Germany). Aggregates of 30 cells or more were considered as colonies. Photos were made using the G:Box transilluminator (Syngene, Cambridge, UK).

Take `CC(C)[Si](OC1OC(=O)C(Br)=C1Br)(C(C)C)C(C)C` (centres unmarked) [Compound 3b, 3,4-Dibromo-5-(triisopropylsilyloxy)-furan-2(5H)-one]: the “effect on progression of the cell cycle” value was “neither the MBA nor its silyl derivatives 3b and 3c tested at 10 μM, influenced the progression of the cell cycle” in assay [1] (10 μM); “did not alter the progression of the cell cycle” in assay [1] (20 μM). The “increase of the sub-G1 population” value in assay [1] (10 μM) stood at 10%; in assay [1] (20 μM), 31%. The IC50 in assay [2] is 7.3 to 21.3 µM; in assay [3], 15.1 ± 1.2 µM; in assay [4] (HepG2, MTT, 72 h incubation), 15.6 ± 1.2 µM. Besides, in assay [5], the “clonogenic potential (re-growth of colonies)” value was “completely abolished the re-growth of HCT-116 colonies; also recorded: abolishes the clonogenic potential”.

Turning to `CC(C)(C)[Si](OC1OC(=O)C(Br)=C1Br)(c1ccccc1)c1ccccc1` (centres unmarked) [Compound 3c, 3,4-Dibromo-5-(tert-butyldiphenylsilyloxy)-furan-2(5H)-one], the “effect on progression of the cell cycle” value in assay [1] (10 μM) is “neither the MBA nor its silyl derivatives 3b and 3c tested at 10 μM, influenced the progression of the cell cycle”; in assay [1] (20 μM) it was “did not alter the progression of the cell cycle”. Moreover, the “increase of the sub-G1 population” value in assay [1] (20 μM) turned out to be 10%. The IC50 in assay [2] was 3.9 to 65.6 µM; in assay [3], 6.3 ± 0.3 µM.

For the compound `O=C1OC(O)C(Br)=C1Br` (centres unmarked) [MBA, 3,4-dibromo-5-hydroxyfuran-2(5H)-one, reference compound], the “effect on progression of the cell cycle” value in assay [1] (10 μM) is “neither the MBA nor its silyl derivatives 3b and 3c tested at 10 μM, influenced the progression of the cell cycle”. In addition, the sub-G1 cells in assay [1] (10 μM) is 0.7%; in assay [1] (20 μM), 1.6%. For the same compound, the “percentage of cells in G1 phase” value in assay [1] (20 μM, HCT 116, representative cytogram) amounted to 38.9%. Also, the IC50 in assay [3] was determined as 20.5 ± 5.2 µM; in assay [4] (HepG2, 72 h) it was 91.7 ± 2.2 µM. For the same compound, the “clonogenic potential (re-growth of colonies)” value in assay [5] is on record as “attenuated the clonogenic potential of HCT-116 to a much less extent”.
